The values that follow come from patent EP3501540A1, “MITOCHONDRIAL TRIFUNCTIONAL PROTEIN (MTP) INHIBITORS FOR USE IN THE TREATMENT OF HIGH MITOCHONDRIAL RESPIRATION (OX+) CANCERS” (UNIVERSITE DE BORDEAUX, priority 2017, dated 2019).

In one test the test system is HADHA. As to the kind of experiment: HADHA expression in cells. Type of test: cell-based, human. To be noted: A549 cells; LiCl 20 mM. How it is done: Cells pellet were lysed in a buffer containing RIPA IX (Sigma-Aldrich) and protease inhibitors cocktail (chymostatin, leupeptin, antipain, pepstatin A - Sigma-Aldrich). Protein lysates were placed on ice for 15 min, vortexed and cleared by centrifugation at 12,000 × g for 15 min at 4 °C. The supernatants were retrieved and frozen at -80 °C until use. Protein concentration was performed using the Pierce™ BCA Protein Assay Kit.
Samples (20ug) were dissolved in Laemmli buffer (Bio-Rad) containing 2% mercaptoethanol by incubation for 15 min at 65°C and separated on a 4-15% SDS-polyacrylamide gradient TGX STAIN FREE mini-gel (Biorad). The gels are activated by UV with chemidoc (Biorad). Proteins were transferred electrophoretically to 0.45 µm of nitrocellulose membranes for 7 min at 2.5 Amp in Transfert buffer with Trans-Blot Turbo (biorad). Membranes were blocked 1h in odyssey buffer (eurobio) and incubated overnight in a mixture of antibodies diluted in odyssey buffer. After three washes with PBS-0.05% Tween 20, the membranes were incubated for 1 h with second antibody (LYCOR) diluted in odyssey buffer. This secondary antibody was detected by fluorescence with odyssey. Proteins were detected using specific antibodies (abcam) and total protein was used as the loading control. Primary antibodies (abcam®) against HADHA, VLCAD, mt-ETFA, mt-ETFB, NDUFS2 and NDUFAB1.

Test [1] has as its system respiratory chain complex I. Put plainly: Complex I enzymatic activity assay (spectrophotometric). Type of test: biochemical, human. Particulars: A549 cells: 500 µM Trimetazidine 48H; cell homogenate: 100 µM palmitoyl-Coa, 10 min incubation. The method, then: Enzymatic activities were measured spectrophotometrically, in homogenate of cells using the following reaction media: Complex I - 50mM potassium phosphate buffer, 100µM Decylubiquinone. The reaction was started by the addition of 100µM NADH and carried out at 37°C for 15 min in 340nm. After the stabilization of the signal was added 12,5µM Rotenone. Complex II - 25mM potassium phosphate buffer, 1mM KCN, 100µM ATP, 50µM DCPIP, 20mM succinate. The reaction was started by the addition of 100µM decylubiquinone and carried out at 37°C for 15 min in 660nm. Complex III - 100mM potassium phosphate buffer, 50µM cytochrome c, 250µM EDTA. The reaction was started by the addition of 100µM decylubiquinol and carried out at 37°C for 15 min in 550nm. After the stabilization of the signal was added 12,5µg/ml antimycin A. Complex IV - 100uM reduced cytochrome C in 50mM potassium phosphate buffer. The reaction was started by the addition of homogenate of cells and carried out at 37°C for 15 min in 550nm.

The next test deals with H460 cells. As to the kind of experiment: Sensitivity to chemotherapeutic drugs. Type of test: cell-based, human. To be noted: H460 cells compared with A549 cells; data not shown.
The subject of another test is A549 (OX+) cells. Put plainly: Sulphorodamine B viability assay. Type of test: cell-based, human. To be noted: A549 (OX+) cells in vitro. How it is done: A549_LUC and H460_LUC, human lung cancer cells, were stably transfected with luciferase (pRRLsin-MND-Luc-WPRE). […] Also, they were tested as luciferase positive using direct application of 2 mL of a 150 mg/ml solution of luciferine (Firefly Luciferin, Caliper Lifescience Corp, USA), followed by immediate bioluminescent imaging using the photonIMAGER™ optima system.
Briefly, cells were seeded in 96-well plates and medium was changed after 24 h, then Test Reagent was added on top of the cell wells and incubated for up to 72h. The viability assay was performed using Sulforhodamine B colorimetric assay for viability assay following the protocol described by Vanicha Vichai & Kanyawim Kirtikara.

With `COC(=O)c1cccc(NS(=O)(=O)c2ccc(C)cc2)c1` [MSAB, methyl 3-{[(4-methylphenyl)sulfonyl]amino}benzoate], the “expression of HADHA” value in the test with HADHA is “opposite effect”. For `CCCCCCCCCCCCCCCC(=O)SCCNC(=O)CCNC(=O)[C@H](O)C(C)(C)COP(=O)(O)OP(=O)(O)OC[C@H]1O[C@@H](n2cnc3c(N)ncnc32)[C@H](O)[C@@H]1OP(=O)(O)O` [palmitoyl-CoA], the “respiratory chain complex I activity” value in test [1] was “inhibition”. For the compound `O=c1[nH]cc(F)c(=O)[nH]1` [5-fluorouracile], the “sensitivity to the chemotherapeutic drugs” value (from here on “sensitivity”) in the test on H460 cells is listed as “higher sensitivity”. Consider `COc1cc([C@@H]2c3cc4c(cc3[C@@H](O[C@@H]3O[C@@H]5CO[C@@H](C)O[C@H]5[C@H](O)[C@H]3O)[C@H]3COC(=O)[C@H]23)OCO4)cc(OC)c1O` [etoposide], for which the “sensitivity” value in the test on H460 cells was “higher sensitivity”. With lithium-chloride, in the test on HADHA, the “expression of HADHA” value is given as “stimulated”.

`COc1ccccc1OCC(O)CN1CCN(CC(=O)Nc2c(C)cccc2C)CC1` (racemic) [Ranolazine, (±)-N-(2,6-dimethylphenyl)-4-[2-hydroxy-3-(2-methoxyphenoxy)-propyl]-1-piperazineacetamide]: the cell viability entry with A549 (OX+) cells is “dose-dependent loss”. Turning to `COc1cccc2c1C(=O)c1c(O)c3c(c(O)c1C2=O)C[C@@](O)(C(=O)CO)C[C@@H]3O[C@H]1C[C@H](N)[C@H](O)[C@H](C)O1` [doxorubicin], in the test with H460 cells, the “sensitivity” value is on record as “higher sensitivity”.
